According to publication PMC5218480 (PLoS ONE, 2017):

Test system: MV-4-11 cells
Assay: Gene expression microarray analysis (Affymetrix PrimeView) and GSEA
Type: cell-based, human
Parameters: RFU PODN (11730768_x_at) / Fold change /veh PODN (11730768_x_at) / RFU LINC00158 (11744669_a_at) / Fold change /veh LINC00158 (11744669_a_at) / RFU DUSP10 (11751237_a_at) / Fold change /veh DUSP10 (11751237_a_at) / RFU ID3 (11757404_x_at) / Fold change /veh ID3 (11757404_x_at) / RFU PLEKHG5 (11737974_s_at) / Fold change /veh PLEKHG5 (11737974_s_at) / RFU LRRC4B (11730491_at) / Fold change /veh LRRC4B (11730491_at) / RFU GIMAP4 (11747438_a_at) / Fold change /veh GIMAP4 (11747438_a_at) / RFU KRT8 (11758183_x_at) / Fold change /veh KRT8 (11758183_x_at) / RFU CNN1 (11734310_a_at) / Fold change /veh CNN1 (11734310_a_at) / RFU VPS37D (11726825_at) / Fold change /veh VPS37D (11726825_at) / RFU C10orf10 (11716522_x_at) / Fold change /veh C10orf10 (11716522_x_at) / RFU KIR2DL2 /// KIR2DL4 /// KIR2DL5A /// KIR2DL5B /// KIR2DS1 /// KIR2DS2 /// KIR2DS3 /// KIR2DS4 /// KIR3DL3 /// KIR3DL3 /// KIR3DS1 (11738374_at) / Fold change /veh KIR2DL2 /// KIR2DL4 /// KIR2DL5A /// KIR2DL5B /// KIR2DS1 /// KIR2DS2 /// KIR2DS3 /// KIR2DS4 /// KIR3DL3 /// KIR3DL3 /// KIR3DS1 (11738374_at) / RFU C1QL1 (11718748_at) / Fold change /veh C1QL1 (11718748_at) / RFU TMPRSS4 (11747572_a_at) / Fold change /veh TMPRSS4 (11747572_a_at) / RFU HAMP (11756126_x_at) / Fold change /veh HAMP (11756126_x_at) / RFU RNFT2 (11725882_a_at) / Fold change /veh RNFT2 (11725882_a_at) / RFU NR4A2 (11747474_a_at) / Fold change /veh NR4A2 (11747474_a_at) / RFU ABCC12 (11746883_a_at) / Fold change /veh ABCC12 (11746883_a_at) / RFU TMEM136 (11760407_x_at) / Fold change /veh TMEM136 (11760407_x_at) / RFU CLDN22 /// WWC2 (11732394_at) / Fold change /veh CLDN22 /// WWC2 (11732394_at) / RFU HLA-DPB1 (11760878_x_at) / Fold change /veh HLA-DPB1 (11760878_x_at) / RFU SPINT1 (11716480_a_at) / Fold change /veh SPINT1 (11716480_a_at) / RFU GAP43 (11754022_s_at) / Fold change /veh GAP43 (11754022_s_at) / RFU A4GNT (11735810_at) / Fold change /veh A4GNT (11735810_at) / RFU PRB3 (11715151_x_at) / Fold change /veh PRB3 (11715151_x_at) / RFU TUBB4B (11761932_at) / Fold change /veh TUBB4B (11761932_at) / RFU CAPN14 (11732068_a_at) / Fold change /veh CAPN14 (11732068_a_at) / RFU TMCC2 (11721928_a_at) / Fold change /veh TMCC2 (11721928_a_at) / RFU IRGQ (11745062_a_at) / Fold change /veh IRGQ (11745062_a_at) / RFU FAM174B (11720279_a_at) / Fold change /veh FAM174B (11720279_a_at) / RFU TMPRSS4 (11748680_a_at) / Fold change /veh TMPRSS4 (11748680_a_at) / RFU FAM212B (11763350_a_at) / Fold change /veh FAM212B (11763350_a_at) / RFU PLEKHG5 (11743358_a_at) / Fold change /veh PLEKHG5 (11743358_a_at) / RFU ZSCAN30 (11745921_a_at) / Fold change /veh ZSCAN30 (11745921_a_at) / RFU CMKLR1 (11741424_a_at) / Fold change /veh CMKLR1 (11741424_a_at) / RFU LOC101060620 /// MAPK8IP1 (11723275_at) / Fold change /veh LOC101060620 /// MAPK8IP1 (11723275_at) / RFU SPTSSB (11747773_x_at) / Fold change /veh SPTSSB (11747773_x_at) / RFU PRSS12 (11739890_at) / Fold change /veh PRSS12 (11739890_at) / RFU BIN1 (11741810_x_at) / Fold change /veh BIN1 (11741810_x_at) / RFU WNT11 (11732464_a_at) / Fold change /veh WNT11 (11732464_a_at) / RFU C10orf10 (11716521_a_at) / Fold change /veh C10orf10 (11716521_a_at) / RFU C5orf56 (11738089_at) / Fold change /veh C5orf56 (11738089_at) / RFU CYB561 (11721691_x_at) / Fold change /veh CYB561 (11721691_x_at) / RFU ANKRD19P (11752326_a_at) / Fold change /veh ANKRD19P (11752326_a_at) / RFU OR2T12 /// OR2T33 /// OR2T8 (11738714_s_at) / Fold change /veh OR2T12 /// OR2T33 /// OR2T8 (11738714_s_at) / RFU VCAN (11748164_a_at) / Fold change /veh VCAN (11748164_a_at) / RFU JSRP1 (11732532_at) / Fold change /veh JSRP1 (11732532_at) / RFU KRTAP10-11 (11738290_x_at) / Fold change /veh KRTAP10-11 (11738290_x_at) / RFU MYO3A (11730013_a_at) / Fold change /veh MYO3A (11730013_a_at) / RFU EBF3 (11725865_a_at) / Fold change /veh EBF3 (11725865_a_at) / RFU CAMK2N1 (11719241_x_at) / Fold change /veh CAMK2N1 (11719241_x_at) / RFU C5orf56 (11738088_a_at) / Fold change /veh C5orf56 (11738088_a_at) / RFU OLFML3 (11715873_a_at) / Fold change /veh OLFML3 (11715873_a_at) / RFU LOC100653217 /// NTM (11731650_a_at) / Fold change /veh LOC100653217 /// NTM (11731650_a_at) / RFU MAPK11 (11762145_a_at) / Fold change /veh MAPK11 (11762145_a_at) / RFU FIZ1 (11724087_x_at) / Fold change /veh FIZ1 (11724087_x_at) / RFU OASL (11726364_x_at) / Fold change /veh OASL (11726364_x_at) / RFU SOX15 (11748057_x_at) / Fold change /veh SOX15 (11748057_x_at) / RFU CD79A (11719716_a_at) / Fold change /veh CD79A (11719716_a_at) / RFU HIST1H1D (11736915_at) / Fold change /veh HIST1H1D (11736915_at) / RFU CASKIN2 (11723855_a_at) / Fold change /veh CASKIN2 (11723855_a_at) / RFU LOC730098 (11760151_x_at) / Fold change /veh LOC730098 (11760151_x_at) / RFU OR4N2 (11742367_at) / Fold change /veh OR4N2 (11742367_at) / RFU PRRT2 (11749266_a_at) / Fold change /veh PRRT2 (11749266_a_at) / RFU SNX32 (11753110_a_at) / Fold change /veh SNX32 (11753110_a_at) / RFU CDHR5 (11726645_a_at) / Fold change /veh CDHR5 (11726645_a_at) / RFU RCAN1 (11760418_a_at) / Fold change /veh RCAN1 (11760418_a_at) / RFU FAM167A (11723789_a_at) / Fold change /veh FAM167A (11723789_a_at) / RFU FAM26E (11764081_at) / Fold change /veh FAM26E (11764081_at) / RFU ISYNA1 (11749810_s_at) / Fold change /veh ISYNA1 (11749810_s_at) / RFU ACY1 (11761880_at) / Fold change /veh ACY1 (11761880_at) / RFU 11764098_at / Fold change /veh 11764098_at / RFU SAMD14 (11745864_x_at) / Fold change /veh SAMD14 (11745864_x_at) / RFU NPB (11741838_a_at) / Fold change /veh NPB (11741838_a_at) / RFU TMPRSS6 (11731388_a_at) / Fold change /veh TMPRSS6 (11731388_a_at) / RFU KRTAP10-2 (11738614_at) / Fold change /veh KRTAP10-2 (11738614_at) / RFU ARHGAP8 /// PRR5-ARHGAP8 (11727945_x_at) / Fold change /veh ARHGAP8 /// PRR5-ARHGAP8 (11727945_x_at) / RFU KRTAP5-7 /// NADSYN1 (11734609_at) / Fold change /veh KRTAP5-7 /// NADSYN1 (11734609_at) / RFU RASL12 (11751679_a_at) / Fold change /veh RASL12 (11751679_a_at) / RFU CDKN2B (11736163_a_at) / Fold change /veh CDKN2B (11736163_a_at) / RFU PRF1 (11729649_at) / Fold change /veh PRF1 (11729649_at) / RFU, ZNF638 /// ZNF638-IT1 / Fold change vs veh, ZNF638 /// ZNF638-IT1 / RFU, PANK3 / Fold change vs veh, PANK3 / RFU, SH3YL1 / Fold change vs veh, SH3YL1 / RFU, ZEB2 / Fold change vs veh, ZEB2 / RFU, NRIP1 / Fold change vs veh, NRIP1 / RFU, PTTG1IP / Fold change vs veh, PTTG1IP / RFU, CAPN2 / Fold change vs veh, CAPN2 / RFU, MED14 / Fold change vs veh, MED14 / RFU, SNORA58 / Fold change vs veh, SNORA58 / RFU, C1orf63 / Fold change vs veh, C1orf63 / RFU, LRRFIP1 / Fold change vs veh, LRRFIP1 / RFU, NDUFAF7 / Fold change vs veh, NDUFAF7 / RFU, SLC12A2 / Fold change vs veh, SLC12A2 / RFU, IBTK / Fold change vs veh, IBTK / RFU, ESF1 / Fold change vs veh, ESF1 / Fold change vs veh, TMEM50B / RFU, TAOK1 / Fold change vs veh, TAOK1 / RFU, ACBD3 / Fold change vs veh, ACBD3 / RFU, TMA16 / Fold change vs veh, TMA16 / RFU, RWDD3 / Fold change vs veh, RWDD3 / RFU, BCAT1 / Fold change vs veh, BCAT1 / RFU, EDEM3 / Fold change vs veh, EDEM3 / RFU, TMEM33 / Fold change vs veh, TMEM33 / RFU, WDR75 / Fold change vs veh, WDR75 / RFU, AHCTF1 / Fold change vs veh, AHCTF1 / RFU, TFRC / Fold change vs veh, TFRC / RFU, ZDHHC17 / Fold change vs veh, ZDHHC17 / RFU, NOM1 / Fold change vs veh, NOM1 / RFU, ARL8B / Fold change vs veh, ARL8B / RFU, ZBTB11 / Fold change vs veh, ZBTB11 / RFU, TAMM41 / Fold change vs veh, TAMM41 / RFU, KIAA1704 /// LOC100996395 / Fold change vs veh, KIAA1704 /// LOC100996395 / RFU, ING1 / Fold change vs veh, ING1 / RFU, TRMT61B / Fold change vs veh, TRMT61B / RFU, FUBP3 / Fold change vs veh, FUBP3 / RFU, TP53 / Fold change vs veh, TP53 / RFU, TNKS2 / Fold change vs veh, TNKS2 / RFU, ZFP14 / Fold change vs veh, ZFP14 / RFU, ACTR2 / Fold change vs veh, ACTR2 / RFU, PPP3R1 / Fold change vs veh, PPP3R1 / RFU, PIK3R1 / Fold change vs veh, PIK3R1 / RFU, HNRNPA1 / Fold change vs veh, HNRNPA1 / RFU, RNF170 / Fold change vs veh, RNF170 / RFU, ZNF28 / Fold change vs veh, ZNF28 / RFU, RNGTT / Fold change vs veh, RNGTT / RFU, OGT / Fold change vs veh, OGT / RFU, BRD1 / Fold change vs veh, BRD1 / RFU, MARS / Fold change vs veh, MARS / RFU, ZNF655 / Fold change vs veh, ZNF655 / RFU, FAHD1 / Fold change vs veh, FAHD1 / RFU, BDP1 / Fold change vs veh, BDP1 / RFU, LRRCC1 / Fold change vs veh, LRRCC1 / RFU, ARID1A / Fold change vs veh, ARID1A / RFU, ZNF146 / Fold change vs veh, ZNF146 / RFU, ZNF330 / Fold change vs veh, ZNF330 / RFU, GPN3 / Fold change vs veh, GPN3 / RFU, C9orf123 / Fold change vs veh, C9orf123 / RFU, N4BP2L2 / Fold change vs veh, N4BP2L2 / RFU, ARFIP1 / Fold change vs veh, ARFIP1 / RFU, FAM179B / Fold change vs veh, FAM179B / RFU, BCL10 / Fold change vs veh, BCL10 / RFU, UHRF1BP1L / Fold change vs veh, UHRF1BP1L / RFU, BET1 / Fold change vs veh, BET1 / RFU, CNOT2 / Fold change vs veh, CNOT2 / RFU, ZNF268 / Fold change vs veh, ZNF268 / Fold change vs veh, ZNF507 / RFU, DGCR2 / Fold change vs veh, DGCR2 / RFU, WDSUB1 / Fold change vs veh, WDSUB1 / Fold change vs veh, HSP90B1 /// MIR3652 / RFU, ADSS / Fold change vs veh, ADSS / RFU, GK / Fold change vs veh, GK / RFU, ZNF148 / Fold change vs veh, ZNF148 / RFU, TAF9 / Fold change vs veh, TAF9 / RFU, SLC1A5 / Fold change vs veh, SLC1A5 / RFU, SLMO2 / Fold change vs veh, SLMO2 / RFU, ABCC4 / Fold change vs veh, ABCC4 / RFU, LOC101060439 /// RAP1B / Fold change vs veh, LOC101060439 /// RAP1B / RFU, RFX7 / Fold change vs veh, RFX7 / RFU, GTPBP10 / Fold change vs veh, GTPBP10 / RFU, CNEP1R1 / Fold change vs veh, CNEP1R1 / RFU, BIVM-ERCC5 /// ERCC5 / Fold change vs veh, BIVM-ERCC5 /// ERCC5 / RFU, ILF3 / Fold change vs veh, ILF3 / RFU 11762660_at / Fold change /veh 11762660_at / RFU VCAN (11757783_s_at) / Fold change /veh VCAN (11757783_s_at) / RFU DDX43 (11728927_at) / Fold change /veh DDX43 (11728927_at) / RFU KRT8 (11758188_x_at) / Fold change /veh KRT8 (11758188_x_at) / RFU NKD1 (11759106_at) / Fold change /veh NKD1 (11759106_at) / RFU SRD5A1 (11742802_a_at) / Fold change /veh SRD5A1 (11742802_a_at) / RFU TPSAB1 /// TPSB2 (11721975_s_at) / Fold change /veh TPSAB1 /// TPSB2 (11721975_s_at) / RFU GSTM3 (11746129_a_at) / Fold change /veh GSTM3 (11746129_a_at) / RFU IL23R (11737362_x_at) / Fold change /veh IL23R (11737362_x_at) / RFU TMEM51 (11727254_a_at) / Fold change /veh TMEM51 (11727254_a_at) / RFU PIWIL2 (11732686_x_at) / Fold change /veh PIWIL2 (11732686_x_at) / RFU ORM1 (11744905_x_at) / Fold change /veh ORM1 (11744905_x_at) / RFU CCDC152 (11743942_at) / Fold change /veh CCDC152 (11743942_at) / RFU ECM1 (11717891_a_at) / Fold change /veh ECM1 (11717891_a_at) / RFU IL23R (11748794_a_at) / Fold change /veh IL23R (11748794_a_at) / RFU TNFAIP8L3 (11732012_x_at) / Fold change /veh TNFAIP8L3 (11732012_x_at) / RFU MBOAT4 (11741988_at) / Fold change /veh MBOAT4 (11741988_at) / RFU 11764193_at / Fold change /veh 11764193_at / RFU TMEM53 (11763286_at) / Fold change /veh TMEM53 (11763286_at) / RFU MAGEB2 (11727129_at) / Fold change /veh MAGEB2 (11727129_at) / RFU TMEM200A (11744735_a_at) / Fold change /veh TMEM200A (11744735_a_at) / RFU CCDC152 (11751479_a_at) / Fold change /veh CCDC152 (11751479_a_at) / RFU FAM211A (11726209_a_at) / Fold change /veh FAM211A (11726209_a_at) / RFU RGS16 (11746705_a_at) / Fold change /veh RGS16 (11746705_a_at) / RFU VCAN (11755009_s_at) / Fold change /veh VCAN (11755009_s_at) / RFU RHOB (11743442_s_at) / Fold change /veh RHOB (11743442_s_at) / RFU RGS16 (11720943_a_at) / Fold change /veh RGS16 (11720943_a_at) / RFU RGS16 (11720944_at) / Fold change /veh RGS16 (11720944_at) / RFU, VPS4B / Fold change vs veh, VPS4B / RFU, CREB1 / Fold change vs veh, CREB1 / RFU, DNAJC13 / Fold change vs veh, DNAJC13 / RFU, GNAQ / Fold change vs veh, GNAQ / RFU, CDK5R1 / Fold change vs veh, CDK5R1 / RFU, ZRANB3 / Fold change vs veh, ZRANB3 / RFU, CUL4A / Fold change vs veh, CUL4A / RFU, CCNY / Fold change vs veh, CCNY / RFU, UFL1 / Fold change vs veh, UFL1 / RFU, COG3 / Fold change vs veh, COG3 / RFU, DIAPH2 / Fold change vs veh, DIAPH2 / RFU, SKA2 / Fold change vs veh, SKA2 / RFU, AFF3 / Fold change vs veh, AFF3 / RFU, LMF1 / Fold change vs veh, LMF1 / RFU, IPO11 / Fold change vs veh, IPO11 / RFU, DFFB / Fold change vs veh, DFFB / RFU, FOXP1 / Fold change vs veh, FOXP1 / RFU, CARD8 / Fold change vs veh, CARD8 / RFU, STRN3 / Fold change vs veh, STRN3 / RFU, ADK / Fold change vs veh, ADK / RFU, RASSF2 / Fold change vs veh, RASSF2 / RFU, WIPF1 / Fold change vs veh, WIPF1 / RFU, LARP1B / Fold change vs veh, LARP1B / RFU, RASA1 / Fold change vs veh, RASA1 / RFU, RB1 / Fold change vs veh, RB1 / RFU, PPFIA1 / Fold change vs veh, PPFIA1 / RFU, MAT2A / Fold change vs veh, MAT2A / RFU, CCT5 / Fold change vs veh, CCT5 / RFU, WDR92 / Fold change vs veh, WDR92 / RFU, CUX1 / Fold change vs veh, CUX1 / RFU, TTC7A / Fold change vs veh, TTC7A / RFU, TMEM135 / Fold change vs veh, TMEM135 / RFU, DEPTOR / Fold change vs veh, DEPTOR / RFU, CPM / Fold change vs veh, CPM / RFU, DNAJB6 / Fold change vs veh, DNAJB6 / RFU, CACNA2D3 / Fold change vs veh, CACNA2D3 / RFU, DTX4 / Fold change vs veh, DTX4 / RFU, TFCP2 / Fold change vs veh, TFCP2 / RFU, GMCL1 /// GMCL1P1 / Fold change vs veh, GMCL1 /// GMCL1P1 / RFU, AEBP2 / Fold change vs veh, AEBP2 / RFU, SNHG1 /// SNORD22 /// SNORD25 /// SNORD26 /// SNORD27 /// SNORD28 /// SNORD29 /// SNORD31 / Fold change vs veh, SNHG1 /// SNORD22 /// SNORD25 /// SNORD26 /// SNORD27 /// SNORD28 /// SNORD29 /// SNORD31 / Fold change (Aza/veh), C12orf56 (ProbeSet 11735607_a_at) / Fold change (ACY-1035/veh), C12orf56 (ProbeSet 11735607_a_at) / Fold change (Aza/veh), FGFR1OP (ProbeSet 11751329_s_at) / Fold change (ACY-1035/veh), FGFR1OP (ProbeSet 11751329_s_at) / Fold change (Aza/veh), VPS36 (ProbeSet 11739960_a_at) / Fold change (ACY-1035/veh), VPS36 (ProbeSet 11739960_a_at) / RFU SYPL1 (11715823_x_at) / Fold change /veh SYPL1 (11715823_x_at) / RFU IGFBP7 (11715501_s_at) / Fold change /veh IGFBP7 (11715501_s_at) / RFU REEP3 (11722064_at) / Fold change /veh REEP3 (11722064_at) / RFU IGLL1 (11728026_x_at) / Fold change /veh IGLL1 (11728026_x_at): dose or concentration left out as unconfirmed
Conditions: ProbeSet 11755436_x_at; LIST B

Compound: Nc1ccc(-c2cccs2)cc1NC(=O)c1ccc2c(c1)cc(C1CC1)n2CCN1CCOCC1 [ACY-1035]
- RFU, ARID1A: 56.79 RFU
